Test results published in patent US6339045B1, “N-(unsubstituted or substituted)-4-substituted-6-(unsubstituted or substituted)phenoxy-2-pyridinecarboxamides or thiocarboxamides, processes for producing the same, and herbicides” (Kureha Kagaku Kogyo Kabushiki Kaisha, priority 1995, dated 2002).

How the values were obtained:
[1] = test system: black nightshade (Solanum nigrum); test: Herbicidal effect by foliage and soil treatment; format: in vivo; details: evaluated after 14 days
Procedure, shortened: (§1)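 Greenhouse pot test at 19–25 °C: spray of aqueous Tween 20 formulation onto foliage and soil of seedlings at cotyledonal–bifoliate stage, dose per area predetermined. Scoring on a rating scale after 14 days versus untreated.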

[2] = test system: cleavers (Galium aparine); test: Herbicidal effect by foliage and soil treatment; format: in vivo; details: evaluated after 14 days
Procedure, shortened: as §1

[3] = test system: common blackjack (Bidens pilosa); test: Herbicidal effect by foliage and soil treatment; format: in vivo; details: evaluated after 14 days
Procedure, shortened: as §1

[4] = test system: common chickweed (Stellaria media); test: Herbicidal effect by foliage and soil treatment; format: in vivo; details: evaluated after 14 days
Procedure, shortened: as §1

[5] = test system: field bindweed (Convolvulus arvensis); test: Herbicidal effect by foliage and soil treatment; format: in vivo; details: evaluated after 14 days
Procedure, shortened: as §1

[6] = test system: ivyleafspeedwell (Veronica hederaefolia); test: Herbicidal effect by foliage and soil treatment; format: in vivo; details: evaluated after 14 days
Procedure, shortened: as §1

[7] = test system: kediock (Sinapis arvensis); test: Herbicidal effect by foliage and soil treatment; format: in vivo; details: evaluated after 14 days
Procedure, shortened: as §1

[8] = test system: redroot pigweed (Amaranthus retroflexus); test: Herbicidal effect by foliage and soil treatment; format: in vivo; details: evaluated after 14 days
Procedure, shortened: as §1

[9] = test system: sicklepod (Cassia obtusifolia); test: Herbicidal effect by foliage and soil treatment; format: in vivo; details: evaluated after 14 days
Procedure, shortened: as §1

[10] = test system: velvetleaf (Abutilon theophrasti); test: Herbicidal effect by foliage and soil treatment; format: in vivo; details: evaluated after 14 days
Procedure, shortened: as §1

[11] = test system: wild chamomile (Matricaria chamomilla); test: Herbicidal effect by foliage and soil treatment; format: in vivo; details: evaluated after 14 days
Procedure, shortened: as §1

For `CCS(=O)(=O)CCNC(=O)c1cc(OC)cc(Oc2cccc(C(F)(F)F)c2)n1` [Compound I-68, N-{2-(ethylsulfonyl)ethyl}-4-methoxy-6-{3-(trifluoromethyl)phenoxy}-2-pyridine carboxamide], the “herbicidal activity rating, SN (Solanum nigrum)” value (“herbicidal activity rating, SN” below) ([1]; 10 g ai/10a) was 5 (percentage of weeds killed was not less than 80%), the “herbicidal activity rating, GA (Galium aparine)” value (“herbicidal activity rating, GA” below) ([2]; 10 g ai/10a) was 5 (percentage of weeds killed was not less than 80%) and the “herbicidal activity rating, BP (Bidens pilosa)” value (“herbicidal activity rating, BP” below) ([3]; 10 g ai/10a) was 4 (percentage of weeds killed was not less than 60% and less than 80%). The “herbicidal activity rating, SM (Stellaria media)” value (from here on “herbicidal activity rating, SM”) ([4]; 10 g ai/10a) was 4 (percentage of weeds killed was not less than 60% and less than 80%), the “herbicidal activity rating, CA (Convolvulus arvensis)” value (shortened to “herbicidal activity rating, CA”) ([5]; 10 g ai/10a) was 4 (percentage of weeds killed was not less than 60% and less than 80%) and the “herbicidal activity rating, VH (Veronica hederaefolia)” value (from here on “herbicidal activity rating, VH”) ([6]; 10 g ai/10a) was 5 (percentage of weeds killed was not less than 80%). For the same compound, the “herbicidal activity rating, SA (Sinapis arvensis)” value (shortened to “herbicidal activity rating, SA”) ([7]; 10 g ai/10a) was 5 (percentage of weeds killed was not less than 80%), the “herbicidal activity rating, AR (Amaranthus retroflexus)” value (from here on “herbicidal activity rating, AR”) ([8]; 10 g ai/10a) was 5 (percentage of weeds killed was not less than 80%) and the “herbicidal activity rating, CO (Cassia obtusifolia)” value (“herbicidal activity rating, CO” for short) ([9]; 10 g ai/10a) was 5 (percentage of weeds killed was not less than 80%). For the same compound, the “herbicidal activity rating, AT (Abutilon theophrasti)” value ([10]; 10 g ai/10a) was 5 (percentage of weeds killed was not less than 80%), the “herbicidal activity rating, MC (Matricaria chamomilla)” value (“herbicidal activity rating, MC” for short) ([11]; 10 g ai/10a) was 2 (percentage of weeds killed was not less than 20% and less than 40%) and the melting point was 92 to 94 °C.
With `CC[S+]([O-])CCNC(=O)c1cc(OC)cc(Oc2cccc(C(F)(F)F)c2)n1` (stereo not shown) [Compound I-69, N-{2-(ethylsulfinyl)ethyl}-4-methoxy-6-{3-(trifluoromethyl)phenoxy}-2-pyridine carboxamide] the “herbicidal activity rating, SN” value ([1]; 10 g ai/10a) was 5 (percentage of weeds killed was not less than 80%), the “herbicidal activity rating, GA” value ([2]; 10 g ai/10a) was 5 (percentage of weeds killed was not less than 80%) and the “herbicidal activity rating, BP” value ([3]; 10 g ai/10a) was 3 (percentage of weeds killed was not less than 40% and less than 60%). For the same compound, the “herbicidal activity rating, SM” value ([4]; 10 g ai/10a) was 4 (percentage of weeds killed was not less than 60% and less than 80%), the “herbicidal activity rating, CA” value ([5]; 10 g ai/10a) was 4 (percentage of weeds killed was not less than 60% and less than 80%) and the “herbicidal activity rating, VH” value ([6]; 10 g ai/10a) was 5 (percentage of weeds killed was not less than 80%). For the same compound, the “herbicidal activity rating, SA” value ([7]; 10 g ai/10a) was 5 (percentage of weeds killed was not less than 80%), the “herbicidal activity rating, AR” value ([8]; 10 g ai/10a) was 5 (percentage of weeds killed was not less than 80%) and the “herbicidal activity rating, CO” value ([9]; 10 g ai/10a) was 5 (percentage of weeds killed was not less than 80%). For the same compound, the “herbicidal activity rating, AT (Abutilon theophrasti)” value ([10]; 10 g ai/10a) was 5 (percentage of weeds killed was not less than 80%), the “herbicidal activity rating, MC” value ([11]; 10 g ai/10a) was 3 (percentage of weeds killed was not less than 40% and less than 60%) and the melting point was 77 to 79 °C.
In the case of `CC(C)NC(=O)c1cccc(Oc2cccc(C(F)(F)F)c2)n1` [control (a)], the “herbicidal activity rating, SN” value ([1]; 10 g ai/10a) is reported as 4 (percentage of weeds killed was not less than 60% and less than 80%), the “herbicidal activity rating, SN” value ([1]; 25 g ai/10a) is reported as 4 (percentage of weeds killed was not less than 60% and less than 80%) and the “herbicidal activity rating, SN” value ([1]; 62.5 g ai/10a) is reported as 5 (percentage of weeds killed was not less than 80%). The “herbicidal activity rating, GA” value ([2]; 10 g ai/10a) was 2 (percentage of weeds killed was not less than 20% and less than 40%), the “herbicidal activity rating, GA” value ([2]; 25 g ai/10a) was 3 (percentage of weeds killed was not less than 40% and less than 60%) and the “herbicidal activity rating, GA” value ([2]; 62.5 g ai/10a) was 4 (percentage of weeds killed was not less than 60% and less than 80%). For the same compound, the “herbicidal activity rating, BP” value ([3]; 10 g ai/10a) was 1 (percentage of weeds killed was less than 20%), the “herbicidal activity rating, BP” value ([3]; 25 g ai/10a) was 1 (percentage of weeds killed was less than 20%) and the “herbicidal activity rating, BP” value ([3]; 62.5 g ai/10a) was 1 (percentage of weeds killed was less than 20%). The “herbicidal activity rating, SM” value ([4]; 10 g ai/10a) was 1 (percentage of weeds killed was less than 20%), the “herbicidal activity rating, SM” value ([4]; 25 g ai/10a) was 1 (percentage of weeds killed was less than 20%) and the “herbicidal activity rating, SM” value ([4]; 62.5 g ai/10a) was 1 (percentage of weeds killed was less than 20%). For the same compound, the “herbicidal activity rating, CA” value ([5]; 10 g ai/10a) was 2 (percentage of weeds killed was not less than 20% and less than 40%), the “herbicidal activity rating, CA” value ([5]; 25 g ai/10a) was 3 (percentage of weeds killed was not less than 40% and less than 60%) and the “herbicidal activity rating, CA” value ([5]; 62.5 g ai/10a) was 3 (percentage of weeds killed was not less than 40% and less than 60%). For the same compound, the “herbicidal activity rating, VH” value ([6]; 10 g ai/10a) was 3 (percentage of weeds killed was not less than 40% and less than 60%), the “herbicidal activity rating, VH” value ([6]; 25 g ai/10a) was 4 (percentage of weeds killed was not less than 60% and less than 80%) and the “herbicidal activity rating, VH” value ([6]; 62.5 g ai/10a) was 5 (percentage of weeds killed was not less than 80%). For the same compound, the “herbicidal activity rating, SA” value ([7]; 10 g ai/10a) was 3 (percentage of weeds killed was not less than 40% and less than 60%), the “herbicidal activity rating, SA” value ([7]; 25 g ai/10a) was 4 (percentage of weeds killed was not less than 60% and less than 80%) and the “herbicidal activity rating, SA” value ([7]; 62.5 g ai/10a) was 5 (percentage of weeds killed was not less than 80%). For the same compound, the “herbicidal activity rating, AR” value ([8]; 10 g ai/10a) was 3 (percentage of weeds killed was not less than 40% and less than 60%), the “herbicidal activity rating, AR” value ([8]; 25 g ai/10a) was 3 (percentage of weeds killed was not less than 40% and less than 60%) and the “herbicidal activity rating, AR” value ([8]; 62.5 g ai/10a) was 4 (percentage of weeds killed was not less than 60% and less than 80%). The “herbicidal activity rating, CO” value ([9]; 10 g ai/10a) was 1 (percentage of weeds killed was less than 20%), the “herbicidal activity rating, CO” value ([9]; 25 g ai/10a) was 2 (percentage of weeds killed was not less than 20% and less than 40%) and the “herbicidal activity rating, CO” value ([9]; 62.5 g ai/10a) was 3 (percentage of weeds killed was not less than 40% and less than 60%). For the same compound, the “herbicidal activity rating, AT (Abutilon theophrasti)” value ([10]; 10 g ai/10a) was 2 (percentage of weeds killed was not less than 20% and less than 40%), the “herbicidal activity rating, AT (Abutilon theophrasti)” value ([10]; 25 g ai/10a) was 3 (percentage of weeds killed was not less than 40% and less than 60%) and the “herbicidal activity rating, AT (Abutilon theophrasti)” value ([10]; 62.5 g ai/10a) was 3 (percentage of weeds killed was not less than 40% and less than 60%). For the same compound, the “herbicidal activity rating, MC” value ([11]; 10 g ai/10a) was 1 (percentage of weeds killed was less than 20%), the “herbicidal activity rating, MC” value ([11]; 25 g ai/10a) was 1 (percentage of weeds killed was less than 20%) and the “herbicidal activity rating, MC” value ([11]; 62.5 g ai/10a) was 1 (percentage of weeds killed was less than 20%).
In the case of `CCCNC(=O)c1cccc(Oc2cccc(C(F)(F)F)c2)n1` [control (b)], the “herbicidal activity rating, SN” value ([1]; 10 g ai/10a) is reported as 5 (percentage of weeds killed was not less than 80%), the “herbicidal activity rating, GA” value ([2]; 10 g ai/10a) is reported as 5 (percentage of weeds killed was not less than 80%) and the “herbicidal activity rating, BP” value ([3]; 10 g ai/10a) is reported as 1 (percentage of weeds killed was less than 20%). The “herbicidal activity rating, SM” value ([4]; 10 g ai/10a) was 4 (percentage of weeds killed was not less than 60% and less than 80%), the “herbicidal activity rating, CA” value ([5]; 10 g ai/10a) was 2 (percentage of weeds killed was not less than 20% and less than 40%) and the “herbicidal activity rating, VH” value ([6]; 10 g ai/10a) was 5 (percentage of weeds killed was not less than 80%). The “herbicidal activity rating, SA” value ([7]; 10 g ai/10a) was 5 (percentage of weeds killed was not less than 80%), the “herbicidal activity rating, AR” value ([8]; 10 g ai/10a) was 5 (percentage of weeds killed was not less than 80%) and the “herbicidal activity rating, CO” value ([9]; 10 g ai/10a) was 3 (percentage of weeds killed was not less than 40% and less than 60%). For the same compound, the “herbicidal activity rating, AT (Abutilon theophrasti)” value ([10]; 10 g ai/10a) was 3 (percentage of weeds killed was not less than 40% and less than 60%) and the “herbicidal activity rating, MC” value ([11]; 10 g ai/10a) was 1 (percentage of weeds killed was less than 20%).
In the case of `CCCNC(=S)c1cccc(Oc2cccc(C(F)(F)F)c2)n1` [control (c)], the “herbicidal activity rating, SN” value ([1]; 10 g ai/10a) is reported as 4 (percentage of weeds killed was not less than 60% and less than 80%), the “herbicidal activity rating, GA” value ([2]; 10 g ai/10a) is reported as 4 (percentage of weeds killed was not less than 60% and less than 80%) and the “herbicidal activity rating, BP” value ([3]; 10 g ai/10a) is reported as 1 (percentage of weeds killed was less than 20%). The “herbicidal activity rating, SM” value ([4]; 10 g ai/10a) was 3 (percentage of weeds killed was not less than 40% and less than 60%), the “herbicidal activity rating, CA” value ([5]; 10 g ai/10a) was 2 (percentage of weeds killed was not less than 20% and less than 40%) and the “herbicidal activity rating, VH” value ([6]; 10 g ai/10a) was 5 (percentage of weeds killed was not less than 80%). The “herbicidal activity rating, SA” value ([7]; 10 g ai/10a) was 5 (percentage of weeds killed was not less than 80%), the “herbicidal activity rating, AR” value ([8]; 10 g ai/10a) was 5 (percentage of weeds killed was not less than 80%) and the “herbicidal activity rating, CO” value ([9]; 10 g ai/10a) was 2 (percentage of weeds killed was not less than 20% and less than 40%). For the same compound, the “herbicidal activity rating, AT (Abutilon theophrasti)” value ([10]; 10 g ai/10a) was 3 (percentage of weeds killed was not less than 40% and less than 60%) and the “herbicidal activity rating, MC” value ([11]; 10 g ai/10a) was 1 (percentage of weeds killed was less than 20%).
